Experimental data as given in patent US12023391B2, “Alpha(v)beta(6) integrin-binding peptides and methods of use thereof” (The Regents of the University of California, priority 2016, dated 2024).
Read-outs that look alike come from different tables or passages of the source. Residues, ends and D or L forms follow the SMILES beside them. *: point of attachment. Benzoyl(4-F) = O=C(c1ccc(F)cc1)*

Columns and labels:
[1] = target: αvβ6 integrin (Homo sapiens, UniProt P06756+P18564); test: Competitive binding ELISA with purified integrin, αvβ6
Experimental: (§1) Small aliquots (50 mg, ˜150,000 beads) were incubated with a mixture of red fluorescent DX3 ITGβ6 mCherry (αvβ6-positive) and green fluorescent DX3 EmGFP (αvβ6-negative) cells for 3 hours and evaluated under a fluorescent microscope. Beads that were covered only by red (i.e. αvβ6-positive) cells were isolated; these beads were subsequently characterized by Edman sequencing. Following synthesis of the identified peptides, competitive binding ELISA was performed with purified integrin to evaluate binding specificities for the target αvβ6 integrin as well as closely related αv-integrins.
(§2) Anti-αv capture antibody P2W7 (5 μg/mL, Novus Biologicals) was coated onto Nunc MaxiSorp 96-well plates, followed by blocking with BSA overnight at 4° C. All wells were washed 3 times with PBS, followed by plating of purified integrin (3 μg/mL) and incubating at room temperature in a humid chamber for 1 hour. Peptide solutions, titrated (1 μM-1 pM for αvβ6 integrin and 100 μM-100 pM for αvβ3 integrin) and mixed with biotinylated natural ligand, were added to the integrin-coated wells in triplicate. […] Captured biotinylated natural ligand was detected with ExtrAvidin-HRP and developed with TMB substrate. Half-maximal inhibitory concentration (IC50) of peptides was determined fitting to sigmoidal dose-response model in GraphPad Prism 6.0 (FIG. 5A).

[2] = target: (Homo sapiens, UniProt P06756+P18084); test: Competitive binding ELISA with purified integrin, αvβ4 (so in the source)
Experimental: as §1
Anti-αv capture antibody P2W7 (5 μg/mL, Novus Biologicals) was coated onto Nunc MaxiSorp 96-well plates, followed by blocking with BSA overnight at 4° C. All wells were washed 3 times with PBS, followed by plating of purified integrin (3 μg/mL) and incubating at room temperature in a humid chamber for 1 hour. Peptide solutions, titrated (1 μM-1 pM for αvβ6 integrin and 100 μM-100 pM for αvβ3 integrin) and mixed with biotinylated natural ligand, were added to the integrin-coated wells in triplicate. After incubating for an hour at room temperature, the plate was washed 3 times with wash buffer. Captured biotinylated natural ligand was detected with ExtrAvidin-HRP and developed with TMB substrate. Half-maximal inhibitory concentration (IC50) of peptides was determined fitting to sigmoidal dose-response model in GraphPad Prism 6.0 (FIG. 5A).

[3] = target: αvβ3 integrin (Homo sapiens, UniProt P05106+P06756); test: Competitive binding ELISA with purified integrin, αvβ3
Experimental: as §1, with “As described further below, a 9-mer XXDLXXLXK(FB) (SEQ ID NO: 23) peptide library was assembled on TentaGel resin (1 g, ˜3,000,000 beads) using standard Fmoc chemistry. Small” for “Small”
as §2, with “hour.” for “hour. Peptide solutions, titrated (1 μM-1 pM for αvβ6 integrin and 100 μM-100 pM for αvβ3 integrin) and mixed with biotinylated natural ligand, were added to the integrin-coated wells in triplicate.”, “5A). […]” for “5A).”

[4] = target: αvβ1 (Homo sapiens, UniProt P05556+P06756); test: Competitive binding ELISA with purified integrin, αvβ1
Experimental: as §1, with “As described further below, a 9-mer XXDLXXLXK(FB) (SEQ ID NO: 23) peptide library was assembled on TentaGel resin (1 g, ˜3,000,000 beads) using standard Fmoc chemistry. Small” for “Small”
as §2, with “hour.” for “hour. Peptide solutions, titrated (1 μM-1 pM for αvβ6 integrin and 100 μM-100 pM for αvβ3 integrin) and mixed with biotinylated natural ligand, were added to the integrin-coated wells in triplicate.”, “5A). […]” for “5A).”

[5] = Log P of radiolabeled peptide; assay type: physicochemical; details: peptide radiolabeled with [18F]fluorobenzoic acid
Experimental: (§3) Based on selectivity profiles of all peptides, the ST1-62 peptide was selected to move forward for radiolabeling with [^18F]fluorobenzoic acid for log P, serum stability, and cell binding studies. Log P=−1.09±0.02 (FIG. 6B). Serum stability of the peptide was determined at 1 hour after incubating with mouse serum at 37° C. (FIG. 7A).

[6] = Serum stability in mouse serum, HPLC analysis; assay type: in vitro ADME; details: [18F]-radiolabeled peptide, 37° C., an hour
Experimental: Serum stability study analysis of Peptide 1 (ST1-62) (SEQ ID NO:2) was performed by first incubating the radiolabeled peptide ([^18F]; 25 μCi) with commercially available mouse serum at 37° C. for an hour. The radiotracer was removed from serum by precipitating out the protein with cold EtOH and then injected into a HPLC for analysis.
as §3

[7] = test system: DX3puroβ6 (αvβ6-positive) and DX3 puro (αvβ6-negative) cells; test: Flow cytometry binding to DX3puroβ6 and DX3 puro cells; assay type: cell-based, human; details: peptide concentrations of 10 μM and 100 μM
Description: FIGS. 8A and 8B show binding of a peptide labeled with FAM-X ([…]-FAM-X; SEQ ID NO:15) to DX3puroβ6 and DX3 puro cells. […] 150,000 cells were used in each experiment. […] These studies used 75,000, 150,000, or 300,000 cells per experiment. The control experiment used 300,000 unstained cells.
Flow cytometry was used to assay the binding of a peptide labeled with FAM-X ([…]-FAM-X; SEQ ID NO:15) to DX3puroβ6 and DX3 puro cells.

CN[C@H](C(=O)NCC(=O)N[C@@H](CC(=O)O)C(=O)N[C@@H](CC(C)C)C(=O)N[C@H](C(=O)N[C@@H](Cc1ccc(O)cc1)C(=O)N[C@@H](CC(C)C)C(=O)N[C@@H](CCCCN)C(=O)N[C@@H](CCCCNC(=O)c1ccc(F)cc1)C(N)=O)[C@@H](C)O)C(C)C
IC50 [1]: 0.5 µM

CSCC[C@H](NC(=O)[C@H](CC(C)C)NC(=O)[C@H](CC(=O)O)NC(=O)CNC(=O)[C@@H](N)CCCNC(=N)N)C(=O)N[C@@H](CCCCN)C(=O)N[C@@H](CC(C)C)C(=O)N[C@@H](C)C(=O)N[C@@H](CCCCNC(=O)c1ccc(F)cc1)C(N)=O [ST1-59] (H-RGDLMKLAK(Benzoyl(4-F))-NH2)
IC50 [2]: > 100 µM

CC(C)C[C@H](NC(=O)[C@H](CC(=O)O)NC(=O)CNC(=O)[C@@H](N)CCCNC(=N)N)C(=O)N[C@@H](C)C(=O)N[C@@H](CC(=O)O)C(=O)N[C@@H](CC(C)C)C(=O)N[C@@H](CCCNC(=N)N)C(=O)N[C@@H](CCCCNC(=O)c1ccc(F)cc1)C(N)=O [ST1-60] (H-RGDLADLRK(Benzoyl(4-F))-NH2)
IC50 [3]: 0.5 µM
IC50 ([2]; competitive binding ELISA, read-out: IC50 αvβ4): > 100 µM

CC(C)C[C@H](NC(=O)[C@H](CCC(=O)O)NC(=O)[C@H](CCCNC(=N)N)NC(=O)[C@H](CC(C)C)NC(=O)[C@H](CC(=O)O)NC(=O)CNC(=O)[C@@H](N)CCCNC(=N)N)C(=O)N[C@@H](C)C(=O)N[C@@H](CCCCNC(=O)c1ccc(F)cc1)C(N)=O [ST1-61] (H-RGDLRELAK(Benzoyl(4-F))-NH2)
IC50 [2]: > 100 µM

CC(C)C[C@H](NC(=O)[C@H](Cc1ccc(O)cc1)NC(=O)[C@@H](NC(=O)[C@H](CC(C)C)NC(=O)[C@H](CC(=O)O)NC(=O)CNC(=O)[C@@H](N)C(C)C)[C@@H](C)O)C(=O)N[C@@H](CCCCN)C(=O)N[C@@H](CCCCNC(=O)c1ccc(F)cc1)C(N)=O [ST1-62]
IC50 [4]: > 100 µM
logP [5]: -1.09 ± 0.02
Serum stability [6]: cleaved by proteases within an hour
IC50 [2]: > 100 µM

VGDLTYLKK-FAM-X (FAM label; C-term FAM-X, fluorescein dye/label) [Fluorescent labeled peptide]
Binding to αvβ6-positive versus αvβ6-negative cells [7]: increased binding to the αvβ6-positive cells than the αvβ6-negative cells
